Assay results from ChEMBL document CHEMBL1131905, “Tokaramide A, a new cathepsin B inhibitor from the marine sponge Theonella aff. mirabilis” (Bioorg Med Chem Lett, 1999).

Tests used:
Cathepsin B [1] = biological target: T1, Cathepsin B (Homo sapiens, UniProt P07858); assay: Inhibitory activity against Cathepsin B was determined
Cathepsin B [2] = biological target: T1, Cathepsin B; assay: Inhibitory activity against Cathepsin B at a concentration of 70 ng/mL
Cathepsin B [3] = biological target: T1, Cathepsin B; assay: Inhibitory activity against Cathepsin B at a concentration of 400 ng/mL
Cathepsin B [4] = biological target: T1, Cathepsin B; assay: Inhibitory activity against Cathepsin B at a concentration of 7 ng/mL
Cathepsin B [5] = biological target: T1, Cathepsin B; assay: Inhibitory activity against Cathepsin B at a concentration of 4 ng/mL
Cathepsin B [6] = biological target: T1, Cathepsin B; assay: Inhibitory activity against Cathepsin B at a concentration of 1 ng/mL
Cathepsin B [7] = biological target: T1, Cathepsin B; assay: Inhibitory activity against Cathepsin B at a concentration of 50 ng/mL
Cathepsin B [8] = biological target: T1, Cathepsin B; assay: Inhibitory activity against Cathepsin B at a concentration of 200 ng/mL
Cathepsin B [9] = biological target: T1, Cathepsin B; assay: Inhibitory activity against Cathepsin B at a concentration of 10 ng/mL
Cathepsin B [10] = biological target: T1, Cathepsin B; assay: Inhibitory activity against Cathepsin B at a concentration of 900 ng/mL
Cathepsin B [11] = biological target: T1, Cathepsin B; assay: Inhibitory activity against Cathepsin B at a concentration of 1000 ng/mL
Cathepsin B [12] = biological target: T1, Cathepsin B; details: 40 ng/mL
Description: Inhibitory activity against Cathepsin B at a concentration of 40 ng/mL

| SMILES | IC50 (Cathepsin B [1]) [µM] | inhibition (Cathepsin B [2]) [%] | inhibition (Cathepsin B [3]) [%] | inhibition (Cathepsin B [4]) [%] | inhibition (Cathepsin B [5]) [%] | inhibition (Cathepsin B [6]) [%] | inhibition (Cathepsin B [7]) [%] | inhibition (Cathepsin B [8]) [%] | inhibition (Cathepsin B [9]) [%] | inhibition (Cathepsin B [10]) [%] | inhibition (Cathepsin B [11]) [%] | inhibition (Cathepsin B [12]) [%] |
| --- | --- | --- | --- | --- | --- | --- | --- | --- | --- | --- | --- | --- |
| CC(C)C[C@H](NC(=O)[C@H]1O[C@@H]1C(=O)O)C(=O)NCCCCN=C(N)N [E-64] | 0.0137 | 95 | 100 | 52 | 29 | 24 | 90 | 98 | 75 |  |  |  |
| CC(=O)N[C@@H](CC(C)C)C(=O)N[C@@H](CC(C)C)C(=O)N[C@H](C=O)CCCNC(=N)N [LEUPEPTIN] | 0.0216 | 82 | 100 | 35 | 25 | 15 | 75 | 95 | 55 | 100 | 100 |  |
| CC(C)[C@H](NC(=O)c1ccc(O)cc1)C(=O)N[C@H](C(=O)N[C@H](C=O)CCCN=C(N)N)C(C)C [TOKARAMIDE A] | 0.0609 | 70 | 90 | 16 | 12 | 10 |  |  | 30 | 100 |  | 45 |
